From patent US20250051344A1, “BIFUNCTIONAL SELECTIVE DEGRADERS OF SMARCA2 AND THERAPEUTIC USES THEREOF” (Nurix Therapeutics, Inc., priority 2023, published 2025)

Key:
SMARCA2 = molecular target: T1, SMARCA2 (Homo sapiens, UniProt P51531); experiment: SMARCA2 Cellular Degradation Assay (Western blot analysis on Jess platform); type: cell-based; conditions: for DC50 / Dmax: cellular degradation; for Fold Selectivity SMARCA4/2: ratio DC50 SMARCA4 / DC50 SMARCA2
T1 construct: endogenous in cells
Outline: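 Readout: Jess Simple Western of tumor-extracted cell lysates, SMARCA2 area over actin area after background subtraction, shown as percentage of vehicle control.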

SMARCA4 = molecular target: T2, SMARCA4 (Homo sapiens, UniProt P51532); experiment: Cellular degradation assay, SMARCA4 (Table 1); type: cell-based
T2 construct: endogenous in cells
T2 sequence (P51532 whole entry, species assumed): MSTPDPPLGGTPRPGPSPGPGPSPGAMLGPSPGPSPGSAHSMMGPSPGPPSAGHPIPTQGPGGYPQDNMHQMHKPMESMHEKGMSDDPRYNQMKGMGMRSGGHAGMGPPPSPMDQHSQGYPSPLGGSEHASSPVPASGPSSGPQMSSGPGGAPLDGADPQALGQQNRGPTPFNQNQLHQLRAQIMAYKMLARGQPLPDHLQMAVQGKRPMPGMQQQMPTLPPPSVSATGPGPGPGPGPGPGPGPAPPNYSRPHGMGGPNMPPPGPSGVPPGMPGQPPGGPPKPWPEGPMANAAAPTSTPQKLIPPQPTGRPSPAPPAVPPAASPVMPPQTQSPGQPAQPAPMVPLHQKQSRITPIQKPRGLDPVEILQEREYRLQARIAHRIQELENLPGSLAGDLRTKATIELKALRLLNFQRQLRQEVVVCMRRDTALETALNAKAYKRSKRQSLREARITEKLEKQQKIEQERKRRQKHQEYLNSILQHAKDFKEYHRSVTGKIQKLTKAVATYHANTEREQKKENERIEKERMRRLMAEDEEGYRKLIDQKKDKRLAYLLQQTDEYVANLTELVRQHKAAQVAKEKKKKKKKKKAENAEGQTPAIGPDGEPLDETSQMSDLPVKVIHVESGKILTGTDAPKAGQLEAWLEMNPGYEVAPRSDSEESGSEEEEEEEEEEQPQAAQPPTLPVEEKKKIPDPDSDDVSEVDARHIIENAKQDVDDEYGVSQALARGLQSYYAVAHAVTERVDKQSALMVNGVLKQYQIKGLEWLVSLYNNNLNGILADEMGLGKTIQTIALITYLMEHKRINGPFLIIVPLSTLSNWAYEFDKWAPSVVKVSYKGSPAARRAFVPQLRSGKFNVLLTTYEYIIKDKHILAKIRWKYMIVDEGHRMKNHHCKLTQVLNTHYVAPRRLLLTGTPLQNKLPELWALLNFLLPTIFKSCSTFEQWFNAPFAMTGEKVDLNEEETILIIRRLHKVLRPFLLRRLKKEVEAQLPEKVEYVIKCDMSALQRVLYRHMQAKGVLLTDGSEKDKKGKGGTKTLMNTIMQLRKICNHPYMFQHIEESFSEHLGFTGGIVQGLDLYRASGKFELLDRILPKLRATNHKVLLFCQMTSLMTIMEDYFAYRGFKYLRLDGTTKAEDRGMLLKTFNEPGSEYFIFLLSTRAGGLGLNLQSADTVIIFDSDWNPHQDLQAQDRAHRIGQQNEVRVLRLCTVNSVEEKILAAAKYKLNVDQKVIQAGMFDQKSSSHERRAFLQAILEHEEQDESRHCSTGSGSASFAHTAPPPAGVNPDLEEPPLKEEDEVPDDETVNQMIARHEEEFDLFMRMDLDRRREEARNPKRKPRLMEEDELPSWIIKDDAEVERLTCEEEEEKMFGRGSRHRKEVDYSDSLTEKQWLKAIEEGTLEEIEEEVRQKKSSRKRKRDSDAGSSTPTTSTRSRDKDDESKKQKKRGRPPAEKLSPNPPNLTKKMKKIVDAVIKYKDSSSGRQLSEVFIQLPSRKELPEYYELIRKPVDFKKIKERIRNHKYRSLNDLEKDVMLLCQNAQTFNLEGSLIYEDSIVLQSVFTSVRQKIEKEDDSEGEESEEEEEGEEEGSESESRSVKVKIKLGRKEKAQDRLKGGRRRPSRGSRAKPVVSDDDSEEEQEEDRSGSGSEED

T1 sequence (P51531 whole entry, species assumed): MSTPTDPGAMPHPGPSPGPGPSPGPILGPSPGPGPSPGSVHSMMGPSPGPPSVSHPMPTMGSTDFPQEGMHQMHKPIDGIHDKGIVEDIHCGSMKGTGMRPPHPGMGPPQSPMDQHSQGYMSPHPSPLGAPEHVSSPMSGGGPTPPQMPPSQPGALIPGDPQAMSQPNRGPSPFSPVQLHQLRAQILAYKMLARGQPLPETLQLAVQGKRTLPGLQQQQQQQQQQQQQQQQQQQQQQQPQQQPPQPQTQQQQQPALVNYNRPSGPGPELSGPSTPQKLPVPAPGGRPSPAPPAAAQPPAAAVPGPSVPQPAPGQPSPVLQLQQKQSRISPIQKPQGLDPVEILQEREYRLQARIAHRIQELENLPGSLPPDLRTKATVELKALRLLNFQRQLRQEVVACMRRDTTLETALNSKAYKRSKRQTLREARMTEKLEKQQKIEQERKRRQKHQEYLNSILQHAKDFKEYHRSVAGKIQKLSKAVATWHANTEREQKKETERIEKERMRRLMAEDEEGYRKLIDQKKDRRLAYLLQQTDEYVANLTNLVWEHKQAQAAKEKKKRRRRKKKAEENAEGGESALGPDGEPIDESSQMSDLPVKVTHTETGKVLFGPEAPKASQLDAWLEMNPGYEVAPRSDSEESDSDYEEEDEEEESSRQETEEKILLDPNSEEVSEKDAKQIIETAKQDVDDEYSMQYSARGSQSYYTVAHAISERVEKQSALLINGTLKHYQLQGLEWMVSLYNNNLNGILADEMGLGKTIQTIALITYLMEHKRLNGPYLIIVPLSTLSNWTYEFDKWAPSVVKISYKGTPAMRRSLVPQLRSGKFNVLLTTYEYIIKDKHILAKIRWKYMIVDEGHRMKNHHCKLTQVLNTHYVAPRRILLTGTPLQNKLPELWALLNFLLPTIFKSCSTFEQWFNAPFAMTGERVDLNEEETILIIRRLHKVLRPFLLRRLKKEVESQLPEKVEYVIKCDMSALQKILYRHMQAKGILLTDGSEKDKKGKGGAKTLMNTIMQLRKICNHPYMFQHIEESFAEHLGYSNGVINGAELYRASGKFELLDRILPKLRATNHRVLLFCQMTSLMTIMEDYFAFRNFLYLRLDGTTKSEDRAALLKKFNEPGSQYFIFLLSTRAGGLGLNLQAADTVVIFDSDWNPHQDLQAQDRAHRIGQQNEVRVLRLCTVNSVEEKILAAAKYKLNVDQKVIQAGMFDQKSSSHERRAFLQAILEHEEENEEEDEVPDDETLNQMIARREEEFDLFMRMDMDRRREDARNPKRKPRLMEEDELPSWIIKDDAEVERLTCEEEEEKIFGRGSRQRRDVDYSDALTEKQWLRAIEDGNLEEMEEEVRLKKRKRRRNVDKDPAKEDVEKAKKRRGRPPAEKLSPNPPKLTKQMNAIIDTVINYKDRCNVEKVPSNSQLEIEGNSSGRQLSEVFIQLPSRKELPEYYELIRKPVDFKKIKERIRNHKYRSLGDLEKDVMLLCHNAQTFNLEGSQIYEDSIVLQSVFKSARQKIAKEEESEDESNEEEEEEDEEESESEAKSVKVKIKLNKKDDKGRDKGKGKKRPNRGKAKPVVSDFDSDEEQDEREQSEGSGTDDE

Structure (SMILES)	DC50 (SMARCA2) [nM]	Dmax (SMARCA2) [%]	Fold Selectivity SMARCA4/2 (SMARCA2)	Dmax (SMARCA4) [%]	DC50 (SMARCA4) [nM]
O=C1CCC(c2c(F)cc(N3CCC(CN4CCC5(CC4)CN(C(=O)C4(Oc6ccccc6)CCN(c6cnnc(-c7ccccc7O)c6)CC4)C5)CC3)cc2F)C(=O)N1 (racemic) [Example 136, rac-(3R)-3-(2,6-difluoro-4-{4-[(2-{1-[6-(2-hydroxyphenyl)pyridazin-4-yl]-4-phenoxypiperidine-4-carbonyl}-2,7-diazaspiro[3.5]nonan-7-yl)methyl]piperidin-1-yl}phenyl)piperidine-2,6-dione]	2.1	94	8	84.2	17.8
CN(C(=O)C1(c2ccccc2)CCN(c2cnnc(-c3ccccc3O)c2)CC1)C1CCN([C@@H]2COC3(CCN(c4ccc([C@H]5CCC(=O)NC5=O)cc4)CC3)C2)CC1 (single isomer, unassigned) [Example 148]	6.84	83	1462	41.4	–
Cn1ccc(OC2(C(=O)N3CCC4(CC3)CN(CCC3CCN(c5ccc(C6CCC(=O)NC6=O)cc5)CC3)C4)CCN(c3cnnc(-c4ccccc4O)c3)CC2)n1 (racemic) [Example 128, rac-3-(4-(4-(2-(7-(1-(6-(2-hydroxyphenyl)pyridazin-4-yl)-4-((1-methyl-1h-pyrazol-3-yl)oxy)piperidine-4-carbonyl)-2,7-diazaspiro[3.5]nonan-2-yl)ethyl)piperidin-1-yl)phenyl)piperidine-2,6-dione]	11.1	71.6	899	39.1	–
O=C1CC[C@H](c2ccc(N3CCC(CCN4CCC(C(=O)NCC5(c6ccccc6)CCN(c6cnnc(-c7ccccc7O)c6)CC5)CC45CCOCC5)CC3)cc2)C(=O)N1 (mixture of isomers) [Example 104, rac-1-(2-(1-(4-((r)-2,6-dioxopiperidin-3-yl)phenyl)piperidin-4-yl)ethyl)-n-((1-(6-(2-hydroxyphenyl)pyridazin-4-yl)-4-phenylpiperidin-4-yl)methyl)-9-oxa-1-azaspiro[5.5]undecane-4-carboxamide]	7.3	81.8	1370	50	–
Cn1c(=O)n([C@H]2CCC(=O)NC2=O)c2cccc(N3CCC(C(=O)N4C[C@@H]5[C@H](C4)[C@H]5C(=O)NCC4(c5ccccc5)CCN(c5cnnc(-c6ccccc6O)c5)CC4)CC3)c21 (racemic) [Example 72, (1r,5s,6r)-3-(1-(1-((rs)-2,6-dioxopiperidin-3-yl)-3-methyl-2-oxo-2,3-dihydro-1h-benzo[d]imidazol-4-yl)piperidine-4-carbonyl)-n-((1-(6-(2-hydroxyphenyl)pyridazin-4-yl)-4-phenylpiperidin-4-yl)methyl)-3-azabicyclo[3.1.0]hexane-6-carboxamide]	0.61	95.8	42	75.4	25.9
CN(C(=O)C1(OC2CC2)CCN(c2cnnc(-c3ccccc3O)c2)CC1)C1CCN(CCC2CCN(c3ccc([C@H]4CCC(=O)NC4=O)c(F)c3)CC2)CC1 (racemic) [Example 70, rac-(r)-4-cyclopropoxy-n-(1-(2-(1-(4-(2,6-dioxopiperidin-3-yl)-3-fluorophenyl)piperidin-4-yl)ethyl)piperidin-4-yl)-1-(6-(2-hydroxyphenyl)pyridazin-4-yl)-n-methylpiperidine-4-carboxamide]	8.6	81.4	1163	35.1	–
O=C1CC[C@H](c2ccc(N3CCC(CN4CC5CCCC(C4)N(C(=O)C4(c6ccccc6)CCN(c6cnnc(-c7ccccc7O)c6)CC4)C5)CC3)cc2)C(=O)N1 (stereo partly drawn) [Example 45, (3R)-3-(4-{4-[(9-{1-[6-(2-hydroxyphenyl)pyridazin-4-yl]-4-phenylpiperidine-4-carbonyl}-3,9-diazabicyclo[3.3.2]decan-3-yl)methyl]piperidin-1-yl}phenyl)piperidine-2,6-dione]	–	29.5	1	9.72	–
O=C1CCC(c2ccc(N3CCOC4(CCN(CC(=O)N5CCC6(CC5)CN(C(=O)C5(c7ccccc7)CCN(c7cnnc(-c8ccccc8O)c7)CC5)C6)CC4)C3)cc2)C(=O)N1 (racemic) [Example 152, rac-(3R)-3-(4-{9-[2-(2-{1-[6-(2-hydroxyphenyl)pyridazin-4-yl]-4-phenylpiperidine-4-carbonyl}-2,7-diazaspiro[3.5]nonan-7-yl)-2-oxoethyl]-1-oxa-4,9-diazaspiro[5.5]undecan-4-yl}phenyl)piperidine-2,6-dione]	68.2	66.5	147	45.4	–

More lines, now with the values ahead:

DC50 (SMARCA2) [nM]	Dmax (SMARCA2) [%]	Fold Selectivity SMARCA4/2 (SMARCA2)	Dmax (SMARCA4) [%]	DC50 (SMARCA4) [nM]	Structure (SMILES)
71.7	63	139.55	37.2	–	O=C1CCC(c2ccc(N3CCC(CN4CC5(C4)CN(C(=O)C4(c6ccc(Cl)c(Cl)c6)CCN(c6cnnc(-c7ccccc7O)c6)CC4)C5)CC3)cc2)C(=O)N1 (racemic) [Example 32, rac-(3R)-3-{4-[4-({6-[4-(3,4-dichlorophenyl)-1-[6-(2-hydroxyphenyl)pyridazin-4-yl]piperidine-4-carbonyl]-2,6-diazaspiro[3.3]heptan-2-yl}methyl)piperidin-1-yl]phenyl}piperidine-2,6-dione]
38.3	59.2	261	48.5	–	O=C1CCC(Nc2ccc(C3CCN(CCNC(=O)C4(c5ccccc5)CCN(c5cnnc(-c6ccccc6O)c5)CC4)CC3)cc2)C(=O)N1 (racemic) [Example 170, rac-N-{2-[4-(4-{[(3R)-2,6-dioxopiperidin-3-yl]amino}phenyl)piperidin-1-yl]ethyl}-1-[6-(2-hydroxyphenyl)pyridazin-4-yl]-4-phenylpiperidine-4-carboxamide]
20.7	74.2	9	61.9	191	O=C1CC[C@@H](c2ccc(N3CCC(CN4CCC(NCC5(c6ccccc6)CCN(c6cnnc(-c7ccccc7O)c6)CC5)CC4)CC3)cc2)C(=O)N1 [Example 135, (s)-3-(4-(4-((4-(((1-(6-(2-hydroxyphenyl)pyridazin-4-yl)-4-phenylpiperidin-4-yl)methyl)amino)piperidin-1-yl)methyl)piperidin-1-yl)phenyl)piperidine-2,6-dione]
–	35.2	1	13	–	O=C1CCC(NC(=O)c2cc(N3CCN(C(=O)C4(c5ccccc5)CCN(c5cnnc(-c6ccccc6O)c5)CC4)CC3)ccn2)C(=O)N1 (racemic) [Example 1, rac-N-[(3r)-2,6-dioxopiperidin-3-yl]-4-(4-{1-[6-(2-hydroxyphenyl)pyridazin-4-yl]-4-phenylpiperidine-4-carbonyl}piperazin-1-yl)pyridine-2-carboxamide]
3.53	71.5	6	54.5	21.6	O=C1CCC(Nc2ccc(C3CCN(CC4CCC45CN(C(=O)C4(c6ccccc6)CCN(c6cnnc(-c7ccccc7O)c6)CC4)C5)CC3)cc2)C(=O)N1 (racemic) [Example 177, rac-(3R)-3-[(4-{1-[(2-{1-[6-(2-hydroxyphenyl)pyridazin-4-yl]-4-phenylpiperidine-4-carbonyl}-2-azaspiro[3.3]heptan-5-yl)methyl]piperidin-4-yl}phenyl)amino]piperidine-2,6-dione]
7.34	84.9	1362	41	–	CN(C(=O)C1(c2ccccc2)CCN(c2cnnc(-c3ccccc3O)c2)CC1)C1CCN([C@H]2COC3(CCN(c4ccc([C@H]5CCC(=O)NC5=O)cc4)CC3)C2)CC1 (single isomer, unassigned) [Example 149]
2.72	89.2	30	58.8	81.9	O=C1CC[C@H](c2ccc(N3CCC(CN4CC[C@@H](NC(=O)C5(c6ccccc6)CCN(c6cnnc(-c7ccccc7O)c6)CC5)CC45CCC5)CC3)cc2)C(=O)N1 [Example 190, N-[(8R)-5-[(1-{4-[(3R)-2,6-dioxopiperidin-3-yl]phenyl}piperidin-4-yl)methyl]-5-azaspiro[3.5]nonan-8-yl]-1-[6-(2-hydroxyphenyl)pyridazin-4-yl]-4-phenylpiperidine-4-carboxamide]
6.23	85.3	1605	44.1	–	CN(C(=O)C1(c2ccccc2)CCN(c2cnnc(-c3ccccc3O)c2)CC1)C1CCN(CCC2CCN(c3ccc(C4CCC(=O)NC4=O)cn3)CC2)CC1 (racemic) [Example 69, rac-N-(1-(2-(1-(5-(2,6-dioxopiperidin-3-yl)pyridin-2-yl)piperidin-4-yl)ethyl)piperidin-4-yl)-1-(6-(2-hydroxyphenyl)pyridazin-4-yl)-N-methyl-4-phenylpiperidine-4-carboxamide]
19.9	75.2	336.59	44.7	6720	O=C1CC[C@@H](c2ccc(N3CCC(CN4CCC5(C4)CN(C(=O)C4(c6ccccc6)CCN(c6cnnc(-c7ccccc7O)c6)CC4)C5)CC3)cc2)C(=O)N1 [Example 9, (3S)-3-(4-{4-[(2-{1-[6-(2-hydroxyphenyl)pyridazin-4-yl]-4-phenylpiperidine-4-carbonyl}-2,6-diazaspiro[3.4]octan-6-yl)methyl]piperidin-1-yl}phenyl)piperidine-2,6-dione]
13.7	75	730	51.5	–	O=C1CC[C@H](c2ccc(N3CCC(CN4CC[C@H]5[C@H](CCN5C(=O)C5(c6ccccc6)CCN(c6cnnc(-c7ccccc7O)c6)CC5)C4)CC3)cc2)C(=O)N1 (mixture of isomers) [Example 155, (3R)-3-[4-(4-{[(3aRS,7aSR)-1-{1-[6-(2-hydroxyphenyl)pyridazin-4-yl]-4-phenylpiperidine-4-carbonyl}-octahydro-1H-pyrrolo[3,2-c]pyridin-5-yl]methyl}piperidin-1-yl)phenyl]piperidine-2,6-dione]
